Results as given in patent publication US10781224B2, “Bis(oxymethyl)phosphinic acid and biogenic metal salts thereof as regulators of plant growth and development” (priority 2016, dated 2020).

Legend:
[1] = tested on: corn (Krasnodar 385 MV variety); assay: Corn seed treatment with BHMPA salts: germinating power; type: in vivo
Method in brief: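 Seeds (50 per Petri dish on two layers of filter paper) soaked 1 h in BHMPA or its Ca, Mg, Na, Co, Mn, Cu or Zn salts at 1·10^−6-1·10^−12%, with water controls. Germination energy read on day 4, germination on day 8 (wheat) or day 7 (rice, corn), as % means of four replicates. Germinating power taken as root and sprout length plus wet and dry mass per 100 seedlings.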

[2] = tested on: winter wheat (Vershin variety); assay: Winter wheat seed treatment with BHMPA salts: germination energy and germination rate; type: in vivo
Method in brief: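 Corn, winter wheat and rice seeds (50 per dish, on filter paper) were soaked for 1 h in BHMPA or its metal salts at 1·10^−6-1·10^−12%, with water as control. Germination energy was read on day 4 and germination rate on day 8 for wheat and day 7 for rice and corn, following GOST 12038-84, as the mean of four replicates.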

[3] = corn seeds, solution concentration 1 · 10^−6%, magnesium salt of BHMPA
[4] = corn seeds, solution concentration 1 · 10^−7%, magnesium salt of BHMPA
[5] = corn seeds, solution concentration 1 · 10^−8%, magnesium salt of BHMPA
[6] = corn seeds, solution concentration 1 · 10^−9%, magnesium salt of BHMPA
[7] = corn seeds, solution concentration 1 · 10^−10%, magnesium salt of BHMPA
[8] = corn seeds, solution concentration 1 · 10^−11%, magnesium salt of BHMPA
[9] = corn seeds, solution concentration 1 · 10^−12%, magnesium salt of BHMPA
[10] = corn, over the tested concentrations
[11] = winter wheat Vershin, 1·10^−6% solution
[12] = winter wheat Vershin, 1·10^−7% solution
[13] = winter wheat Vershin, 1·10^−8% solution
[14] = winter wheat Vershin, 1·10^−9% solution
[15] = winter wheat Vershin, 1·10^−10% solution
[16] = winter wheat Vershin, 1·10^−11% solution
[17] = winter wheat Vershin, 1·10^−12% solution
[18] = winter wheat, comparative study vs Melaphen, 1·10^−11% solution

O=P([O-])(CO)CO.O=P([O-])(CO)CO.[Mg+2] [Mg-salt, Magnesium BHMPA Salt]
optimum concentration for treating corn seeds before sowing ([1]; corn): 1·10^−9% | Length, root [1, 3]: 6.4 cm | Length, root, + % to control [1, 3]: 21% | Length, sprout [1, 3]: 2.9 cm | Length, sprout, + % to control [1, 3]: −12% | Mass, dry, root [1, 3]: 1.60 g/100 plantlings | Mass, dry, root, + % to control [1, 3]: 9.5% | Mass, dry, sprout [1, 3]: 1.07 g/100 plantlings | Mass, dry, sprout, + % to control [1, 3]: 11% | Mass, wet, root [1, 3]: 10.29 g/100 plantlings | Mass, wet, root, + % to control [1, 3]: 17% | Mass, wet, sprout [1, 3]: 7.17 g/100 plantlings | Mass, wet, sprout, + % to control [1, 3]: 12% | Length, root [1, 4]: 7.0 cm | Length, root, + % to control [1, 4]: 32% | Length, sprout [1, 4]: 3.3 cm | Length, sprout, + % to control [1, 4]: 0% | Mass, dry, root [1, 4]: 1.81 g/100 plantlings | Mass, dry, root, + % to control [1, 4]: 24% | Mass, dry, sprout [1, 4]: 1.12 g/100 plantlings | Mass, dry, sprout, + % to control [1, 4]: 17% | Mass, wet, root [1, 4]: 10.86 g/100 plantlings | Mass, wet, root, + % to control [1, 4]: 24% | Mass, wet, sprout [1, 4]: 7.93 g/100 plantlings | Mass, wet, sprout, + % to control [1, 4]: 23.5% | Length, root [1, 5]: 8.5 cm | Length, root, + % to control [1, 5]: 60% | Length, sprout [1, 5]: 3.5 cm | Length, sprout, + % to control [1, 5]: 6% | Mass, dry, root [1, 5]: 1.91 g/100 plantlings | Mass, dry, root, + % to control [1, 5]: 31% | Mass, dry, sprout [1, 5]: 1.19 g/100 plantlings | Mass, dry, sprout, + % to control [1, 5]: 24% | Mass, wet, root [1, 5]: 11.64 g/100 plantlings | Mass, wet, root, + % to control [1, 5]: 33% | Mass, wet, sprout [1, 5]: 8.89 g/100 plantlings | Mass, wet, sprout, + % to control [1, 5]: 38% | Length, root [1, 6]: 9.1 cm | Length, sprout [1, 6]: 3.8 cm | Mass, dry, root [1, 6]: 2.02 g/100 plantlings | Mass, dry, root, + % to control [1, 6]: 38% | Mass, dry, sprout [1, 6]: 1.27 g/100 plantlings | Mass, dry, sprout, + % to control [1, 6]: 32% | Mass, wet, root [1, 6]: 12.42 g/100 plantlings | Mass, wet, root, + % to control [1, 6]: 42% | Mass, wet, sprout [1, 6]: 10.35 g/100 plantlings | Mass, wet, sprout, + % to control [1, 6]: 61% | Length, root [1, 7]: 8.3 cm | Length, root, + % to control [1, 7]: 57% | Length, sprout [1, 7]: 3.6 cm | Length, sprout, + % to control [1, 7]: 9% | Mass, dry, root [1, 7]: 1.96 g/100 plantlings | Mass, dry, root, + % to control [1, 7]: 34% | Mass, dry, sprout [1, 7]: 1.20 g/100 plantlings | Mass, dry, sprout, + % to control [1, 7]: 25% | Mass, wet, root [1, 7]: 11.86 g/100 plantlings | Mass, wet, root, + % to control [1, 7]: 35% | Mass, wet, sprout [1, 7]: 8.62 g/100 plantlings | Mass, wet, sprout, + % to control [1, 7]: 34% | Length, root [1, 8]: 8.1 cm | Length, root, + % to control [1, 8]: 53% | Length, sprout [1, 8]: 3.0 cm | Length, sprout, + % to control [1, 8]: −9% | Mass, dry, root [1, 8]: 1.81 g/100 plantlings | Mass, dry, root, + % to control [1, 8]: 24% | Mass, dry, sprout [1, 8]: 1.10 g/100 plantlings | Mass, dry, sprout, + % to control [1, 8]: 14.5% | Mass, wet, root [1, 8]: 10.04 g/100 plantlings | Mass, wet, root, + % to control [1, 8]: 14% | Mass, wet, sprout [1, 8]: 8.18 g/100 plantlings | Mass, wet, sprout, + % to control [1, 8]: 27% | Length, root [1, 9]: 7.8 cm | Length, root, + % to control [1, 9]: 47% | Length, sprout [1, 9]: 2.8 cm | Length, sprout, + % to control [1, 9]: −15% | Mass, dry, root [1, 9]: 1.57 g/100 plantlings | Mass, dry, root, + % to control [1, 9]: 7.5% | Mass, dry, sprout [1, 9]: 0.94 g/100 plantlings | Mass, dry, sprout, + % to control [1, 9]: −2% | Mass, wet, root [1, 9]: 9.18 g/100 plantlings | Mass, wet, root, + % to control [1, 9]: 5% | Mass, wet, sprout [1, 9]: 7.04 g/100 plantlings | Mass, wet, sprout, + % to control [1, 9]: 10% | Length, root, + % to control ([1]; corn, 1·10^−9% solution): 72% | Length, sprout, + % to control ([1]; corn, 1·10^−9% solution): 15% | Mass, dry, root, + % to control ([1]; corn, 1·10^−9% solution): 38% | Mass, dry, sprout, + % to control ([1]; corn, 1·10^−9% solution): 32% | Mass, wet, root, + % to control ([1]; corn, 1·10^−9% solution): 42% | Mass, wet, sprout, + % to control ([1]; corn, 1·10^−9% solution): 61% | increase of germinating power of the roots [1, 10]: 21%-72% | sprout length changes [1, 10]: −15% to +15% | Germination energy [2, 11]: 85.0% | Germination rate [2, 11]: 89.3% | Germination energy [2, 12]: 88.4% | Germination rate [2, 12]: 92.0% | Germination energy [2, 13]: 88.8% | Germination rate [2, 13]: 92.0% | Germination energy [2, 14]: 89.3% | Germination rate [2, 14]: 93.0% | Germination energy [2, 15]: 89.9% | Germination rate [2, 15]: 93.3% | Germination energy [2, 16]: 93.1% | Germination rate [2, 16]: 96.0% | Germination energy [2, 17]: 90.0% | Germination rate [2, 17]: 93.3% | Germination energy [2, 18]: 93.3% | Germination rate [2, 18]: 96.7%
